Key:
[1] = tested on: Single Comb White Leghorn hens; test: Anti-PLA2 antibody titer in egg yolk of immunized hens by ELISA; type: in vivo
Text: (§1) In all Examples, Single Comb White Leghorn hens (SCWL) used were transported as pullets (18- to 22-weeks of age) from S&R Farms (Whitewater, Wis.) to University of Wisconsin—Madison Poultry Research Laboratory. Hens were individually housed in cages with raised bottom floors for at least four weeks before being assigned to an Example, and were 26- to 60-weeks of age at the beginning of experiments. Hens were fed, ad libitum, a standard corn-soybean meal based laying hen diet formulated to meet nutritional requirements. Housing was maintained under an automated lighting schedule with 16:8-h light-dark cycle. All procedures involving animals were approved by Animal Care Committee at University of Wisconsin, Madison.
The antigen selected for comparing the antibody response of hens was a 13 kDa soluble protein antigen, phospholipase A2 (PLA2) purified from porcine pancreas (Novozyme, Bagsvaerd, Denmark; greater than 90% purity based on SDS-PAGE). PLA2 was used because of its commercial relevance, and its previous use as a model antigen for studying hen antibody response (Trott, et al., 2008, “Additions of killed whole cell bacteria preparations to Freund complete adjuvant alter laying hen antibody response to soluble protein antigen,” Poult. Sci., 87(5):912-917). Hens were immunized according to methods described by Trott, et al. (2008). The primary immunization for each hen was a water-in-oil emulsion (50:50) that consisted of 3 mg PLA2 dissolved in 0.5 mL phosphate buffer saline (PBS), and emulsified with 0.5 mL of Freund Complete Adjuvant (FCA; DIFCO, Sparks, Md.). Seven days after the primary immunization, each hen received a booster injection containing 3 mg PLA2 dissolved in 0.5 mL PBS and emulsified with Freund Incomplete Adjuvant (FIA; DIFCO). All injections (primary and booster) were administered i.m. into each breast and thigh of hen (1 ml/hen at 0.25 mL/injection site). In all experiments, immunization of hens (primary and booster) occurred at approximately 10 A.M. to eliminate the potential confounding effect of endogenous CORT levels fluctuating due to circadian rhythms.
Based on previous experimentation (Trott et al., 2008; Schade et al., 2001, “Chicken egg yolk antibodies: Production and application,” Springer, Heidelberg, Germany) week three after primary immunization represented peak antibody titer in egg yolk; therefore, eggs were collected once per week beginning on week three and continuing until week eight or ten for repeated testing of anti-PLA2 antibody content using an ELISA (Trott, et al., 2008).
Anti-PLA2 antibody content of egg yolk and serum samples were measured by an ELISA (Trott, et al., 2008). A 96-well Nunc-Immuno Plate with MaxiSorp surface (Thermo Fischer Scientific, Waltham, Mass.) was coated overnight (100 μl per well) with PLA2 (Sigma Aldrich, St. Louis, Mo.) at a concentration of 10 μg/ml in 50 mM sodium bicarbonate. After washing, the plate was blocked (175 μl per well) for at least 1 hour with PBS containing 1% albumin from bovine serum albumin (BSA; Sigma Aldrich). Egg antibody was water-extracted from liquid egg yolk samples. Liquid egg yolk samples […] were pipetted with a positive displacement pipette (Rainin, Oakland, Calif.) and extracted overnight with 1.8 ml acidified PBS (pH 5). The extraction mixture was centrifuged at 1,500×g for 10 minutes, and the supernate was further diluted to 1:16,000 with PBS containing 1% BSA (pH 7). Serum samples were diluted 1:16,000 in PBS containing 1% BSA. In addition to the weekly egg yolk or serum samples, an ‘in-lab standard’ was applied to each ELISA plate. The standard applied to each plate consisted of a 2-fold serial dilution from 1:2,000 to 1:64,000 of water-extracted egg yolks from hens immunized against PLA2 in a previous trial. After coating, blocking, and washing the plate, duplicate samples and ‘in-lab standard’ (100 μl/well) were incubated for 1 hour on the plate followed by washing (6×). […]

[2] = tested on: Single Comb White Leghorn hens; test: Anti-PLA2 antibody titer in serum of immunized hens by ELISA; type: in vivo; details: weeks 2 to 3 after primary immunization
Text: as §1
The antigen selected for comparing the antibody response of hens was a 13 kDa soluble protein antigen, phospholipase A2 (PLA2) purified from porcine pancreas (Novozyme, Bagsvaerd, Denmark; greater than 90% purity based on SDS-PAGE). PLA2 was used because of its commercial relevance, and its previous use as a model antigen for studying hen antibody response (Trott, et al., 2008, “Additions of killed whole cell bacteria preparations to Freund complete adjuvant alter laying hen antibody response to soluble protein antigen,” Poult. Sci., 87(5):912-917). […]
Anti-PLA2 antibody content of egg yolk and serum samples were measured by an ELISA (Trott, et al., 2008). […]

[3] = tested on: Single Comb White Leghorn hens; test: Peripheral blood mononuclear cell (PBMC) counts; type: in vivo
Protocol: Peripheral Blood Mononuclear Cell Counts. […] Whole blood (2-3 ml) was collected from wing vein into heparin-containing tubes (Becton Dickinson, Sparks, Md.). In 15-ml conical tubes, blood (2 ml) was layered on an equal volume (2 ml) of 1077 Histopaque (Sigma-Aldrich), and centrifuged at 400×g for 30 minutes at room temperature. Mononuclear cells were collected from the gradient interface, and re-suspended in PBS to the original blood volume (2 ml) or the sample. PBMCs were further diluted (1:16) in PBS, mixed with an equal volume of 0.4% trypan blue solution (Sigma-Aldrich), and counted, microscopically, with the aid of a hemacytometer.

[4] = tested on: Single Comb White Leghorn hens; test: Body weight change (% initial BW); type: in vivo
Protocol: (§2) Measurement of body weight and egg production. […] Initial body weight of adult laying hens, 26- to 60-weeks of age, was reported when measured at the beginning of experiments. Data were expressed as a percentage of initial body weight (% initial BW) to determine effects of CORT on change in body weight. Eggs produced were recorded daily for each hen. Laying frequency (or egg production) of each hen during each 7 day period measured, was obtained by dividing the total number of eggs laid by 7.

[5] = tested on: Single Comb White Leghorn hens; test: Egg production (laying frequency); type: in vivo
Protocol: as §2

[6] = tested on: chicken; details: feeding CORT 20-80 mg/kg diet; cited from earlier work
[7] = tested on: broilers; details: dietary CORT 30 mg/kg diet for 1 week; cited from earlier work
[8] = tested on: laying hens; details: cited from earlier work
[9] = after 1 day of CORT at 20 mg/kg diet in drinking water; cited from earlier work
[10] = tested on: mice; details: exogenous corticosterone; cited from earlier work
[11] = Example 3: CORT 5 days, week 1 after diet administration
[12] = Example 4: CORT 6 days, weeks 4 to 10 after primary immunization

With C[C@]12C[C@H](O)[C@H]3[C@@H](CCC4=CC(=O)CC[C@@]43C)[C@@H]1CC[C@@H]2C(=O)CO [CORT, corticosterone] the “difference in antibody titer of egg yolks vs control-fed hens” value ([1]; Example 2: CORT 30 mg/kg diet for 2 days beginning on day 1 before primary immunization, weeks 3 to 6, p=0.24) was “no difference”, the “antibody titer of egg yolks (Log2 titer)” value ([1]; Example 2: CORT 30 mg/kg diet for 2 days beginning on day 1 before primary immunization, weeks 3 to 6 after primary immunization) was 15.52 Log2 titer and the “antibody titer of egg yolks (Log2 titer)” value ([1]; Example 3: CORT 30 mg/kg diet for 5 days beginning on day 7 before primary immunization, weeks 3 to 5 after primary immunization) was 17.02 Log2 titer. For the same compound, the “difference in antibody titer of egg yolks vs control-fed hens” value ([1]; Example 3: CORT for 5 days beginning on day 7 before primary immunization, weeks 3 to 5, p=0.96) was “no difference”, the “egg yolk antibody titer (Log2 titer)” value ([1]; Example 4: CORT 30 mg/kg diet for 6 days beginning on day 1 before primary immunization, weeks 3 to 5) was 17.32 Log2 titer and the “egg yolk antibody titer (Log2 titer)” value ([1]; Example 4: CORT 6 days, entire study period weeks 3 to 9) was 17.37 Log2 titer. For the same compound, the “fold higher egg yolk antibody titer vs control-fed hens” value ([1]; Example 4: CORT 6 days, weeks 3 to 5, p=0.006) was 3.1 fold, the “fold increase in antibody titer of egg yolks vs control hens” value ([1]; Example 4: CORT 6 days, weeks 3 to 9, p=0.032) was 1.8 fold and the “fold higher antibody titer of egg yolks vs control-fed hens” value ([1]; Example 5: CORT 9 days, weeks 3 to 10, p=0.00001) was 3.0 fold. The “antibody titer of egg yolks (Log2 titer)” value ([1]; Example 5: dietary CORT for 9 days beginning on day 1 before primary immunization, weeks 3 to 10 after primary immunization) was 16.50 Log2 titer, the “serum antibody titer (Log2 titer)” value ([2]; Example 4: CORT 30 mg/kg diet for 6 days beginning on day 1 before primary immunization) was 17.65 Log2 titer and the “fold higher serum antibody titer vs control hens” value ([2]; Example 4: CORT 6 days, p=0.008) was 4.9 fold. The “overall effect of CORT on PBMC counts” value ([3]; Example 3: CORT 5 days beginning day 7 before immunization, p=0.82) was “no effect”, the PBMC count [3, 11] was 17,800 cells/μl blood and the “PBMC count as % of control-fed hens” value ([3]; Example 3: CORT 5 days, week 1 after diet administration, p=0.025) was 49%. For the same compound, the PBMC count ([3]; Example 3: CORT 5 days, week 2 after diet administration) was 35,400 cells/μl blood, the PBMC count ([3]; Example 4: CORT 30 mg/kg diet 6 days, week 1 after diet administration) was 9,200 cells/μl blood and the “PBMC count as % of control-fed hens” value ([3]; Example 4: CORT 6 days, week 1 after diet administration, p<0.0001) was 43%. The PBMC count ([3]; Example 4: CORT 6 days, week 2) was 12,900 cells/μl blood, the “PBMC count as % of control-fed hens” value ([3]; Example 4: CORT 6 days, week 2, p=0.001) was 59% and the PBMC count ([3]; Example 4: CORT 6 days, week 3, returned to control levels, p=0.57) was 19,700 cells/μl blood. The “effect of CORT on body weight (% initial BW) vs control-fed hens” value ([4]; Example 3: CORT 5 days, p=0.27) was “no effect”, the “body weight higher than initial body weight” value [4, 11] was 11.4% and the “body weight higher than initial body weight” value ([4]; Example 3: CORT 5 days, week 2) was 10.5%. The “body weight vs initial body weight” value ([4]; Example 3: CORT 5 days, week 5 after diet administration, p=0.57) was “not different from initial body weight”, the “body weight higher than initial body weight” value ([4]; Example 4: CORT 6 days, weeks 1 to 3 after diet administration) was 13.3% and the “decrease in egg production between week 1 before and week 1 after diet administration” value ([5]; Example 3: CORT 5 days, p=0.004) was 21%. The “overall difference in egg production vs control-fed hens” value ([5]; Example 3: CORT 5 days, p=0.57) was “no overall difference”, the “egg production, overall” value ([5]; Example 3: CORT 5 days, throughout the Example) was 73% and the egg production [5, 11] was 50%. For the same compound, the “egg production less than control-fed hens” value ([5]; Example 3: CORT 5 days, week 1 after diet administration, p=0.005) was 34%, the egg production ([5]; Example 3: CORT 5 days, week 2) was 62% and the “egg production less than control-fed hens” value ([5]; Example 3: CORT 5 days, week 2, p=0.014) was 29%. For the same compound, the “overall egg production less than control-fed hens” value ([5]; Example 4: CORT 6 days) was 35%, the “egg production suppressed vs control-fed hens” value ([5]; Example 4: CORT 6 days, week 1 after diet administration) was 50% and the “egg production suppressed vs control-fed hens” value ([5]; Example 4: CORT 6 days, week 2 after diet administration) was 100%. The “egg production suppressed vs control-fed hens” value ([5]; Example 4: CORT 6 days, week 3 after diet administration) was 80%, the overall egg production ([5]; Example 4: CORT 6 days, weeks 0 to 10) was 54% and the egg production [5, 12] was 69%. For the same compound, the “egg production lower than control-fed hens” value [5, 12] was 17%, the overall egg production ([5]; Example 5: CORT 9 days) was 39% and the “overall egg production less than control-fed hens” value ([5]; Example 5: CORT 9 days) was 31%. The “egg production suppressed vs control-fed hens” value ([5]; Example 5: CORT 9 days, week 4 after diet administration) was 80%, the egg production ([5]; Example 5: CORT 9 days, week 5 after diet administration) was 45% and the “egg production lower than control-fed hens” value ([5]; Example 5: CORT 9 days, week 5 after diet administration, p=0.007) was 50%. For the same compound, the “egg production suppressed vs control-fed hens” value ([5]; Example 5: CORT 9 days, weeks 2 and 3 after diet administration) was 60%, the egg production ([5]; Example 5: CORT 9 days, weeks 6 to 11 after primary immunization) was 53% and the “egg production lower than control-fed hens” value ([5]; Example 5: CORT 9 days, weeks 6 to 11 after primary immunization, p=0.001) was 14%. The “number of circulating lymphocytes in chicken blood” value [6] was “markedly decreased”, the “effect on body weight gain in broilers” value [7] was “negatively affect” and the egg production ([8]; after 1 week of dietary CORT 20-40 mg/kg diet) was “completely suppressed”. For the same compound, the “effect on egg production in laying hens” value ([8]; dietary CORT 30 mg/kg diet for 1 week) was “negatively affect”, the “additional time out of production after removal of CORT” value ([8]; dietary CORT 20-40 mg/kg diet for 1 week) was 9 to 12 days and the “plasma CORT concentrations” value [9] was “significant increase”. For the same compound, the “mouse T-dependent antibody response to sheep erythrocytes” value [10] was “increased”.

Source: patent publication US20110003382A1, “USE OF CORTICOSTERONE FOR INCREASING EGG ANTIBODY” (WISCONSIN ALUMNI RESEARCH FOUNDATION, priority 2009, published 2011)
